Source: article PMC8741576 (Molecular Diversity, 2022)
Read-outs that look alike come from different tables or passages of the source.

Experiments:
in vitro = conditions: human
[1] = tested on: HEL 299 normal human lung fibroblasts; test: Antiproliferative screening on noncancerous cells; conditions: Homo sapiens, HEL 299, read-out: IC50 HEL 299
[2] = tested on: Z-138 non-Hodgkin lymphoma cells; test: Antiproliferative screening, IncuCyte cell growth; format: cell-based; conditions: Homo sapiens
human coronavirus 229E = conditions: HEL cell culture
[3] = tested on: K-562 chronic myeloid leukemia cells; test: Antiproliferative screening, IncuCyte cell growth; format: cell-based; conditions: Homo sapiens
[4] = tested on: NCI-H460 lung carcinoma cells; test: Antiproliferative screening, MTS cell viability assay; format: cell-based; conditions: Homo sapiens
[5] = tested on: Capan-1 pancreatic adenocarcinoma cells; test: as above; format: cell-based; conditions: Homo sapiens
[6] = tested on: HCT-116 colorectal carcinoma cells; test: as above; format: cell-based; conditions: Homo sapiens
[7] = tested on: HL-60 acute myeloid leukemia cells; test: Antiproliferative screening, IncuCyte cell growth; format: cell-based; conditions: Homo sapiens
[8] = tested on: LN-229 glioblastoma cells; test: Antiproliferative screening, MTS cell viability assay; format: cell-based; conditions: Homo sapiens
[9] = tested on: DND-41 acute lymphoblastic leukemia cells; test: Antiproliferative screening, IncuCyte cell growth; format: cell-based; conditions: Homo sapiens
[10] = Cytotoxicity in MT-4 cell culture; format: cell-based; conditions: human, MT-4 cells
[11] = Z-138, 72 h, read-out: IC50 Z-138
[12] = K562, 72 h, read-out: IC50 K-562
[13] = NCI-H460, 72 h, read-out: IC50 NCI-H460
[14] = CAPAN-1, 72 h, read-out: IC50 Capan-1
[15] = HCT-116, 72 h, read-out: IC50 HCT-116
[16] = HL-60, 72 h, read-out: IC50 HL-60
[17] = LN-229, 72 h, read-out: IC50 LN-229
[18] = DND41, 72 h, read-out: IC50 DND-41
[19] = NCI-H460, read-out: IC50 NCI-H460
[20] = CAPAN-1, read-out: IC50 Capan-1
[21] = HCT-116, read-out: IC50 HCT-116

With O=C(NCCCCNc1ccnc2ccccc12)c1ccccc1NCc1ccccc1 [Compound 10, 2-(Benzylamino)-N-[4-(quinolin-4-ylamino)butyl]benzamide] the CC50 (in vitro) was 5.6 ± 3 µM, the IC50 [1] was 33.6 ± 15.6 µM and the IC50 [2, 11] was 4.6 ± 2 µM. The “SI, selectivity index (CC50 to EC50 ratio) 229E” value (human coronavirus 229E) was over 7, the IC50 [3, 12] was 5.9 ± 3.5 µM and the IC50 [4, 13] was 2.2 ± 0.8 µM. The IC50 [5, 14] was 4.2 ± 3.4 µM, the IC50 [6, 15] was 7.4 ± 1.5 µM and the IC50 [7, 16] was 14.9 ± 7.3 µM. It also gave an IC50 [8, 17] of 3 ± 2 µM and an IC50 [9, 18] of 8 ± 3.2 µM.

Work on Nc1ccccc1C(=O)NCCCCNc1ccnc2ccccc12 [Compound 11, 2-Amino-N-[4-(quinolin-4-ylamino)butyl]benzamide] yielded a CC50 (in vitro) of 46.3 ± 1.2 µM, an IC50 [1] of 41.6 ± 1.2 µM and an IC50 [2, 11] of 31.2 ± 1.1 µM. The “SI, selectivity index (CC50 to EC50 ratio) 229E” value (human coronavirus 229E) was 6.0, the IC50 [3, 12] was 18.7 ± 6.7 µM and the IC50 [4, 13] was 87.4 ± 12.6 µM. The IC50 [5, 14] was 62.2 ± 9.7 µM, the IC50 [6, 15] was 45.4 ± 4.9 µM and the IC50 [7, 16] was 44.7 ± 11 µM. The IC50 [8, 17] was 39.7 ± 4.4 µM and the IC50 [9, 18] was 59.6 ± 1.7 µM.

With COc1cc(NC(C)CCCNC(=O)c2ccc(Cl)cc2N)c2ncccc2c1 (stereo not shown) [Compound 15, 2-Amino-4-chloro-N-{4-[(6-methoxyquinolin-8-yl)amino]pentyl}benzamide] the IC50 [1] was over 100 µM, the IC50 [2, 11] was over 100 µM and the IC50 [3, 12] was over 100 µM. The IC50 [4, 13] was over 100 µM, the IC50 [5, 14] was over 100 µM and the IC50 [6, 15] was over 100 µM. It also gave an IC50 [7, 16] of over 100 µM, an IC50 [8, 17] of over 100 µM and an IC50 [9, 18] of over 100 µM.

In the case of Cc1nc(CNC(=O)c2ccccc2N)cc2c1[nH]c1ccccc12 [Compound 17, 2-Amino-N-[(1-methyl-9H-pyrido[3,4-b]indol-3-yl)methyl]benzamide], the IC50 [1] is reported as 32.8 ± 3.3 µM, the IC50 [2, 11] is reported as 35.1 ± 4.5 µM and the IC50 [3, 12] is reported as 52 ± 5.3 µM. The IC50 [4, 13] was 54.8 ± 5.9 µM, the IC50 [5, 14] was 31.4 ± 1.9 µM and the IC50 [6, 15] was 48.4 ± 3.8 µM. The IC50 [7, 16] was 44 ± 8.4 µM, the IC50 [8, 17] was 41 ± 0.3 µM and the IC50 [9, 18] was 61.5 ± 2.1 µM.

Work on Cc1nc(CNC(=O)c2ccc(Cl)cc2N)cc2c1[nH]c1ccccc12 [Compound 18, 2-Amino-4-chloro-N-[(1-methyl-9H-pyrido[3,4-b]indol-3-yl)methyl]benzamide] yielded an IC50 [1] of over 100 µM, an IC50 [2, 11] of over 100 µM and an IC50 [3, 12] of over 100 µM. For the same molecule, the IC50 [4, 13] was 43.8 ± 8.4 µM, the IC50 [5, 14] was 56.3 ± 24.1 µM and the IC50 [6, 15] was 55 ± 17.7 µM. For the same molecule, the IC50 [7, 16] was over 100 µM, the IC50 [8, 17] was 44 ± 7.6 µM and the IC50 [9, 18] was over 100 µM.

Work on Cc1nc(CNC(=O)c2cc(Br)ccc2N)cc2c1[nH]c1ccccc12 [Compound 19, 2-Amino-5-bromo-N-[(1-methyl-9H-pyrido[3,4-b]indol-3-yl)methyl]benzamide] yielded an IC50 [1] of 82.6 ± 17.4 µM, an IC50 [2, 11] of 55.5 ± 12.1 µM and an IC50 [3, 12] of 64.9 ± 4.9 µM. It also gave an IC50 [4, 13] of 55 ± 5 µM, an IC50 [5, 14] of 38.9 ± 5.8 µM and an IC50 [6, 15] of 60.8 ± 31 µM. It also gave an IC50 [7, 16] of 66.3 ± 34 µM, an IC50 [8, 17] of 46.2 ± 7.5 µM and an IC50 [9, 18] of 68.3 ± 12.2 µM.

Molecule CC(=O)O[C@@]12CO[C@@H]1C[C@H](O)[C@@]1(C)C(=O)[C@H](O)C3=C(C)[C@@H](OC(=O)[C@H](O)[C@@H](NC(=O)OC(C)(C)C)c4ccccc4)C[C@@](O)([C@@H](OC(=O)c4ccccc4)[C@H]21)C3(C)C [DTX, docetaxel, reference compound] has an IC50 ([2]; Z-138, read-out: IC50 Z-138) of 0.0025 ± 0.003 µM, an IC50 ([3]; K562, read-out: IC50 K-562) of 0.0089 ± 0.003 µM and an IC50 [4, 19] of 0.0271 ± 0.003 µM. The IC50 [5, 20] was 0.01 ± 0.003 µM, the IC50 [6, 21] was 0.0025 ± 0.003 µM and the IC50 ([7]; HL-60, read-out: IC50 HL-60) was 0.0137 ± 0.003 µM. It also gave an IC50 ([8]; LN-229, read-out: IC50 LN-229) of 0.0018 ± 0.003 µM and an IC50 ([9]; DND41, read-out: IC50 DND-41) of 0.0055 ± 0.003 µM.

N#C[C@@]1(c2ccc3c(N)ncnn23)O[C@H](CO)[C@@H](O)[C@H]1O [GS-441524] showed a CC50 (in vitro) of over 100 µM.

In the case of Cc1nc(CN)cc2c1[nH]c1ccccc12 [HA, (1-methyl-9H-pyrido[3,4-b]indol-3-yl)methanamine, reference compound], the CC50 (in vitro) is reported as over 100 µM, the IC50 [1] is reported as over 100 µM and the IC50 [2, 11] is reported as 57.4 ± 32.6 µM. It also gave an IC50 [3, 12] of over 100 µM, a CC50 at 5 days [10] of 22.3 ± 4.9 µM and an IC50 [4, 13] of 85.1 ± 14.8 µM. For the same molecule, the IC50 [5, 14] was 68.6 ± 3.4 µM, the IC50 [6, 15] was over 100 µM and the IC50 [7, 16] was over 100 µM. For the same molecule, the IC50 [8, 17] was over 100 µM and the IC50 [9, 18] was over 100 µM.

With CN[C@@H]1C[C@H]2O[C@@](C)([C@@H]1OC)n1c3ccccc3c3c4c(c5c6ccccc6n2c5c31)C(=O)NC4 [STS, staurosporine, reference compound] the IC50 [4, 19] was 0.0384 ± 0.003 µM, the IC50 [5, 20] was 0.0382 ± 0.003 µM and the IC50 [6, 21] was 0.0687 ± 0.003 µM. It also gave an IC50 ([7]; HL-60, read-out: IC50 HL-60) of 0.0598 ± 0.003 µM.
